Source: patent US20220411362A1, “DITERPENOID COMPOUNDS THAT ACT ON PROTEIN KINASE C (PKC)” (K-Gen, Inc., priority 2019, published 2022)
Read-outs that look alike come from different tables or passages of the source.

What was measured:
[1] = target: T1, C1b domain of human PKD1 (PKCμ) (Homo sapiens, UniProt Q15139); experiment: biochemical; assay type: binding
T1 construct: Genes encoding C1b domains of human PKCα, δ, ε, θ, and PKD1 (PKCμ) were synthesized; made in house; host or cells: E. coli BL21(DE3)
T1 sequence (Q15139 270-320 limits assumed): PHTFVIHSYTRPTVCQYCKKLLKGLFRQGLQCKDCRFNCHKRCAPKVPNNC
Experimental: (§1) Compounds described in this disclosure were tested for binding affinity to C1b domain of PKC isoforms. Compound binding affinity to C1b domain of PKC isoforms was derived from competitive binding assay using radioactive tracer ^3H-PDBu and recombinant GST-C1b or full-length of human PKC proteins based on modified procedures from Methods in Molecular Biology, vol.
(§2) Genes encoding C1b domains of human PKCα, δ, ε, θ, and PKD1 (PKCμ) were synthesized and inserted into pGEX-2TK or pGEX-4T1 vectors for expression and production of GST-C1b proteins in E. coli BL21(DE3) via IPTG induction. The target proteins were purified by glutathione sepharose 4B and followed by ion exchange chromatography if needed to achieve purity >70%. Aliquots of the purified proteins were stored at −80 degree for binding assay (storage buffer: 20 mM Tris pH 8.0, 200 mM NaCl, 10% glycerol, 1 mM DTT).
(§3) The plate was incubated at 37° C. on a shaker at 300 rpm for 10 minutes and then put on ice for 20 minutes. […] The bottom of the filter plate was sealed and 50 μL of MicroScint-20 (PerkinElmer) cocktail was added to each well. ^3H-PDBu trapped in each well was counted using PerkinElmer MicroBeta2 Reader. Data were analyzed using GraphPad Prism5 with the model “log(inhibitor) vs. response-variable slope” to fit the IC50, and then IC50 was transformed to Ki using Cheng-Prusoff equation: Ki=IC50/(1+added radio ligand/Kd). Kd is the binding affinity of each protein preparation to ^3H-PDBu, determined experimentally.

C1b domain of human PKCδ = target: T2, C1b domain of human PKCδ (Homo sapiens, UniProt Q05655); experiment: Competitive 3H-PDBu binding to C1b domain of PKCδ; conditions: 3H-PDBu competition
T2 construct: Genes encoding C1b domains of human PKCα, δ, ε, θ, and PKD1 (PKCμ) were synthesized; made in house; host or cells: E. coli BL21(DE3)
Experimental: as §1, §2, §3

[2] = tested on: A549 non-small cell lung cancer cell line; experiment: Proliferation of A549 (CellTiter Glo); assay type: cell-based; conditions: read-out: IC50 μM (A549 Cell Line)
Experimental: The diterpenoid compounds were tested in A549, a non-small cell lung cancer cell line harboring a K-Ras activating mutation. Briefly, A549 cells at a density of 1,000 cells/well were seeded in 96-well plates and incubated at 37° C. for 24 hours. A series of different concentrations of compound stocks (500×) were prepared by 3-fold serial dilution in DMSO. These compounds were further diluted in culture media and then added to cells so that the final DMSO concentration was not exceeding 0.25%. After 96 hours of incubation, 50 μL of CellTiter Glo reagent (Promega) was added to each well and luminescence was measured after 10 minutes using EnVision (PerkinElmer). Luminescence from cells treated with DMSO alone was set as Max and % of inhibition was calculated as follows: Inhibition %=(Max−Sample value)/Max×100. Data was analyzed using XL-fit software (ID Business Solutions Ltd.) and IC50, relative IC50, and % of top inhibition was calculated. Some of the compounds in this disclosure were very potent in blocking proliferation of A549 lung cancer cells at low nM range. In addition, potency of inhibiting A549 proliferation correlated well with its binding affinity to PKCs for this series of compounds. In other words, higher affinity binders had stronger inhibitory effects on A549 proliferation. This further support the notion that activation, rather than inhibition, of certain PKC isoforms is required to block proliferation of cancer cells, some of which may harbor K-Ras mutations. This is in sharp contrast to previous literature and common belief that inhibition of PKC is necessary to block cancer cell growth (Kang, 2014, New Journal of Science, 2014:1-36). Data presented here is in agreement with recent findings that many loss-of-function but not gain-of-function mutations of PKC isoforms have been identified in many human cancers (Antal et al., 2015, Cell, 160:489-502).

C1b domain of human PKCα = target: T3, C1b domain of human PKCα (Homo sapiens, UniProt P17252); experiment: biochemical; assay type: binding; conditions: 3H-PDBu competition
T3 construct: Genes encoding C1b domains of human PKCα, δ, ε, θ, and PKD1 (PKCμ) were synthesized; made in house; host or cells: E. coli BL21(DE3)
Experimental: as §1, §2
The plate was incubated at 37° C. on a shaker at 300 rpm for 10 minutes and then put on ice for 20 minutes. […] The bottom of the filter plate was sealed and 50 μL of MicroScint-20 (PerkinElmer) cocktail was added to each well. ^3H-PDBu trapped in each well was counted using PerkinElmer MicroBeta2 Reader. […] Kd is the binding affinity of each protein preparation to ^3H-PDBu, determined experimentally.

[3] = Homo sapiens, A549, 96 hours incubation, CellTiter Glo

T2 sequence (Q05655 230-280 limits assumed): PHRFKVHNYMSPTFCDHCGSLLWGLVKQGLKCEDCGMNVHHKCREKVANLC

| Structure (SMILES) | Ki [1] [nM] | Ki (C1b domain of human PKCδ; Ki PKCδ) [nM] | IC50 ([2]; Homo sapiens, A549, 96 h) [µM] | Ki (C1b domain of human PKCα; Ki PKCα) [nM] | further results |
| --- | --- | --- | --- | --- | --- |
| CCCC[C@H](N)C(=O)O[C@@]12C[C@@H](C)[C@@]3(O)[C@@H](C=C(CO)C[C@]4(O)C(=O)C(C)=C[C@@H]34)[C@@H]1C2(C)C [Compound K101-C1317] | < 5 | 1 to 30 | 0.6 to 1 | 800 to 1000 |  |
| CC1=C[C@H]2[C@@]3(O)[C@H](C)C[C@]4(OC(=O)CCc5scnc5C)[C@H]([C@@H]3C=C(CO)C[C@]2(O)C1=O)C4(C)C [Compound K101-C1320] | 1 to 30 | 30 to 60 | 0.2 to 0.6 | 2000 to 4000 |  |
| CC1=C[C@H]2[C@@]3(O)[C@H](C)C[C@]4(OC(=O)CCc5c[nH]c6ncccc56)[C@H]([C@@H]3C=C(CO)C[C@]2(O)C1=O)C4(C)C [Compound K101-C1322] | 5 to 10 | 30 to 60 | 2 to 5 | 800 to 1000 |  |
| CC1=C[C@H]2[C@@]3(O)[C@H](C)C[C@]4(OC(=O)CCc5cnn(C)c5)[C@H]([C@@H]3C=C(CO)C[C@]2(O)C1=O)C4(C)C [Compound K101-C1323] | 100 to 200 | 200 to 400 | 2 to 5 | > 8000 |  |
| CC1=C[C@H]2[C@@]3(O)[C@H](C)C[C@]4(OC(=O)[C@@H](N)CC5CCC5)[C@H]([C@@H]3C=C(CO)C[C@]2(O)C1=O)C4(C)C [Compound K101-C1325] | 30 to 60 | 30 to 60 | 1 to 2 | 4000 to 6000 |  |
| CC1=C[C@H]2[C@@]3(O)[C@H](C)C[C@]4(OC(=O)[C@@H](N)CCS(C)(=O)=O)[C@H]([C@@H]3C=C(CO)C[C@]2(O)C1=O)C4(C)C [Compound K101-C1326] | 200 to 400 | 400 to 800 | > 30 | > 8000 |  |
| CC1=C[C@H]2[C@@]3(O)[C@H](C)C[C@]4(OC(=O)[C@@H](N)CC(C)(C)C)[C@H]([C@@H]3C=C(CO)C[C@]2(O)C1=O)C4(C)C [Compound K101-C1328] | < 5 | 1 to 30 | 0.2 to 0.6 | 200 to 400 |  |
| CC1=C[C@H]2[C@@]3(O)[C@H](C)C[C@]4(OC(=O)[C@@H](N)CC5CC5)[C@H]([C@@H]3C=C(CO)C[C@]2(O)C1=O)C4(C)C [Compound K101-C1330] | 30 to 60 |  | 2 to 5 | 1000 to 2000 |  |
| CC1=C[C@H]2[C@@]3(O)[C@H](C)C[C@]4(OC(=O)[C@@H](N)C/C=C/c5ccccc5)[C@H]([C@@H]3C=C(CO)C[C@]2(O)C1=O)C4(C)C [Compound K101-C1331] |  |  |  |  | Ki ([1]; read-out: Ki PKD1/PKCμ): < 5 nM; Ki (C1b domain of human PKCδ; read-out: Ki PKCδ): 5 to 10 nM; IC50 ([2]; A549, 96 hours incubation, CellTiter Glo): 0.06 to 0.1 µM; Ki (C1b domain of human PKCα; read-out: Ki PKCα): 100 to 200 nM |
| CC1=C[C@H]2[C@@]3(O)[C@H](C)C[C@]4(OC(=O)[C@@H](N)CC5CCCC5)[C@H]([C@@H]3C=C(CO)C[C@]2(O)C1=O)C4(C)C [Compound K101-C1332] | 5 to 10 | 5 to 10 | 0.1 to 0.2 | 100 to 200 |  |
| CC1=C[C@H]2[C@@]3(O)[C@H](C)C[C@]4(OC(=O)CCCCCCCCCCC(=O)O)[C@H]([C@@H]3C=C(CO)C[C@]2(O)C1=O)C4(C)C [Compound K101-C1334] | 30 to 60 | 400 to 800 | 10 to 30 | > 8000 |  |
| CC1=C[C@H]2[C@@]3(O)[C@H](C)C[C@]4(OC(=O)CCCCCCCCCCCC(=O)O)[C@H]([C@@H]3C=C(CO)C[C@]2(O)C1=O)C4(C)C [Compound K101-C1335] |  | 200 to 400 | 10 to 30 | > 8000 |  |
| CSCC[C@H](N)C(=O)O[C@@]12C[C@@H](C)[C@@]3(O)[C@@H](C=C(CO)C[C@]4(O)C(=O)C(C)=C[C@@H]34)[C@@H]1C2(C)C [Compound K101-C1338] | 30 to 60 | 100 to 200 | 5 to 10 | 2000 to 4000 |  |
| CSC[C@H](N)C(=O)O[C@@]12C[C@@H](C)[C@@]3(O)[C@@H](C=C(CO)C[C@]4(O)C(=O)C(C)=C[C@@H]34)[C@@H]1C2(C)C [Compound K101-C1339] |  | 200 to 400 | 5 to 10 | 4000 to 6000 |  |
| CC1=C[C@H]2[C@@]3(O)[C@H](C)C[C@]4(OC(=O)[C@@H](N)Cc5c[nH]c6ccccc56)[C@H]([C@@H]3C=C(CO)C[C@]2(O)C1=O)C4(C)C [Compound K101-C1340] | 5 to 10 | 1 to 30 | 10 to 30 | 200 to 400 |  |
| CC1=C[C@H]2[C@@]3(O)[C@H](C)C[C@]4(OC(=O)[C@H](O)Cc5ccccc5)[C@H]([C@@H]3C=C(CO)C[C@]2(O)C1=O)C4(C)C [Compound K101-C1355] | 30 to 60 | 100 to 200 | 2 to 5 |  |  |
| CN[C@@H](CC1CCCCC1)C(=O)O[C@@]12C[C@@H](C)[C@@]3(O)[C@@H](C=C(CO)C[C@]4(O)C(=O)C(C)=C[C@@H]34)[C@@H]1C2(C)C [Compound K101-C1364] |  | 1 to 30 | 0.2 to 0.6 | 200 to 400 |  |
| CC1=C[C@H]2[C@@]3(O)[C@H](C)C[C@]4(OC(=O)[C@@H](N)C56CC(C(F)(F)F)(C5)C6)[C@H]([C@@H]3C=C(CO)C[C@]2(O)C1=O)C4(C)C [Compound K101-C1375] |  |  |  |  | IC50 [2, 3]: 0.06 to 0.1 µM |
| CC1=C[C@H]2[C@@]3(O)[C@H](C)C[C@]4(OC(=O)[C@@H](N)CCc5ccccc5)[C@H]([C@@H]3C=C(CO)C[C@]2(O)C1=O)C4(C)C [Compound K101-C135602] |  | 1 to 30 |  | 200 to 400 |  |
| CC1=C[C@H]2[C@@]3(O)[C@H](C)C[C@]4(OC(=O)[C@H](N)C56CC(F)(C5)C6)[C@H]([C@@H]3C=C(CO)C[C@]2(O)C1=O)C4(C)C [Compound K101-C137301] |  |  |  |  | IC50 [2, 3]: 10 to 30 µM |
| CC1=C[C@H]2[C@@]3(O)[C@H](C)C[C@]4(OC(=O)[C@@H](N)C56CC(F)(C5)C6)[C@H]([C@@H]3C=C(CO)C[C@]2(O)C1=O)C4(C)C [Compound K101-C137302] |  |  |  |  | IC50 [2, 3]: 10 to 30 µM |
| CC1=C[C@H]2[C@@]3(O)[C@H](C)C[C@]4(OC(=O)[C@@H](N)C5Cc6ccccc6C5)[C@H]([C@@H]3C=C(CCl)C[C@]2(O)C1=O)C4(C)C [K101-C1329-Cl] |  |  |  |  | IC50 [2, 3]: 0.06 to 0.1 µM |
| CC1=C[C@H]2[C@@]3(O)[C@H](C)C[C@]4(OC(=O)[C@H](N)CCCCCCc5ccccc5)[C@H]([C@@H]3C=C(COC(=O)[C@@H](N)C(C)C)C[C@]2(O)C1=O)C4(C)C [K101-C134801C2003] |  |  |  |  | IC50 [2, 3]: 0.03 to 0.06 µM |
